From patent publication US20040044028A1, “Combinations of omega-3 fatty acids and cyclooxygenase-2 inhibitors for treatment or prevention of cardiovascular disease and treatment or prevention of cancer” (priority 2001, published 2004)
Marks after values point to notes of the source that are not given here. Blank lines part the entries; values can stand above or below the compound they belong to.

Assays:
[1] = tested on: HepG2 cells; test: Metabolism of 14C fatty acids to long chain n-3 PUFAs, EPA and DHA in HepG2 cells; format: in vitro ADME; details: for metabolized to DHA / metabolized to EPA: 20 μM 14C fatty acid
Description: To a culture medium containing HepG2 cells is added 20 μM ^14C-ALA, ^14C-SDA or ^14C-EPA complexed to fatty acid free BSA. The amount of ^14C-ALA, ^14C-SDA or ^14C-EPA taken up by the HepG2 cells is measured at 6 hours, 24 hours and 48 hours after addition of the fatty acid. A scintillation counter is used to measure the total amount of radioactivity in the HepG2 cells and the amount remaining in the medium.
The metabolism of stearidonic acid to long chain n-3 PUFAs (eicosatetraenoic acid (20:4n-3), eicosapentaenoic acid (20:5n-3), docosapentaenoic acid (22:5n-3), and docosahexaenoic acid (22:6n-3)) in HepG2 cells is compared to that of α-linolenic acid. HepG2 cells are allowed to take up ^14C-ALA or ^14C-SDA as described in Example 2. The total amount of ^14C-EPA, ^14C-DPA and ^14C-DHA present in the HepG2 cells is measured at 6 hours, 24 hours and 48 hours after addition of the fatty acid by argentation thin layer chromatography (TLC). The amount of each fatty acid present as a band on the TLC plate is quantified by electronic autoradiography using an Instant Imager available from Packard (Meriden, Conn.).
HepG2 cells are allowed to take up ^14C-ALA, ^14C-SDA or ^14C-EPA as described in Example 2. The amount of ^14C-EPA and ^14C-DHA present in the HepG2 cells is measured at 6 hours, 24 hours and 48 hours after addition of the fatty acids by argentation thin layer chromatography (TLC) as described in Example 3. The amount of ^14C-EPA and ^14C-DHA present as bands on the TLC plate are quantified by electronic autoradiography using an Instant Imager as described in Example 3.

[2] = tested on: Min/+ mouse model of intestinal cancer; test: Min/+ mouse model of intestinal cancer, intestinal polyp formation; format: in vivo; details: for mice with large intestine tumors / mice in group (in parentheses): seven weeks on US17 diet with fatty acid ethyl ester 3% wt. or sulindac 320 ppm; for effect on polyp number: differences not significant relative to the US17 control
Description: The efficacy of select n-3 and n-6 polyunsaturated fatty acids is evaluated in the Min/+ mouse model of intestinal cancer. The following fatty acid ethyl esters are tested for their effect on intestinal polyp formation: 1) ALA-EE; 2) SDA-EE; 3) EPA-EE; 4) DHA-EE; 5) GLA-EE ([…] adid, 18:3 n-6); and 6) CLA-EE (conjugated linoleic acid; c9t11-18:2 (77%)+c9c11-18:2 (18%)+other isomers (5%)).
These fatty acid ethyl esters are added to the US17 diet to provide 10 g/day human equivalent dose (3% wt.). The NSAID, sulindac (320 ppm), serves as the positive control. In order to maintain a 17% fat (37 en %) content in the US17 diet, oleic acid (18:1 n-9) is removed from the US17 diet in an amount equal to the amount of the fatty acid ethyl ester that is added. Mice are received at approximately five weeks of age and are fed the test diets upon receipt. After seven weeks on the respective test diet, the mice are sacrificed and the intestinal polyps are counted and measured.

[3] = tested on: small intestine tissue of Min/+ mouse; test: Arachidonic acid level in small intestine tissue of Min/+ mice; format: in vivo; details: phospholipid fraction, ethyl ester 3% wt. in US17 diet
Description: The efficacy of select n-3 and n-6 polyunsaturated fatty acids in reducing the level of arachidonic acid in small intestine tissue is evaluated using the Min/+ mouse model.
The following fatty acid ethyl esters are tested for their effect on intestinal fatty acid composition: 1) ALA-EE; 2) SDA-EE; 3) EPA-EE; 4) DHA-EE; 5) GLA-EE; and 6) CLA-EE. Fatty acid composition is determined in the small intestine because that is where the vast majority of polyps form.
These fatty acid esters are added to the US17 diet as discussed in Example 8. The arachidonic acid level in the phospholipid fraction of the small intestines of the mice is determined by gas chromatography.

[4] = tested on: mouse liver; test: Metabolism in mice, time course analysis using radiolabeled fatty acids; format: in vivo; details: 10 μCi intraperitoneal, at 24 hours
From the text: (§1) The metabolism of stearidonic acid to long chain n-3 polyunsaturated fatty acids (i.e., eicosapentaenoic acid (EPA), docosapentaenoic acid (DPA n-3), and docosahexaenoic acid (DHA)) in mouse liver is compared to that of α-linolenic acid, eicosapentaenoic acid and docosahexaenoic acid. The method used is a time course study using ^14C-labeled fatty acids.
Mice are fed the US 17 diet for a period of one month in order to achieve steady-state fatty acid metabolism. After achieving steady-state fatty acid metabolism, the mice are administered an intraperitoneal injection containing 10 μCi of ^14C-ALA, ^14C-SDA, ^14C-EPA or ^14C-DHA. Mice are sacrificed 3 hours, 8 hours or 24 hours post-injection, and the total amount of ^14C-EPA, ^14C-DPA n-3 and ^14C-DHA is measured by argentation thin layer chromatography followed by direct electronic autoradiography, as described in Example 3. The order of metabolism of the PUFAs is DHA=EPA>SDA>ALA at 24 hours. SDA is metabolized to long chain n-3 PUFAs more efficiently than ALA in vivo.

[5] = tested on: rat liver; test: Metabolism in rats, end point analysis using cold fatty acid ethyl esters; format: in vivo; details: dietary ethyl esters
Description: Oleic acid is selected as the replacement fatty acid because literature reports indicate that oleic acid is neutral with respect to inflammation and cancer. After one month on the respective US17-based diets, the mice are sacrificed and the fatty acid composition of each of their livers is analyzed by gas chromatography. […] DHA-EE>EPA-EE>SDA-EE>ALA-EE. […] This is significant because arachidonic acid metabolites (e.g., prostaglandins, leukotrienes, and HETEs (hydroxyeicosatetraenoic acid)) are correlated with cardiovascular disease, inflammation, and tumorigenesis. The group “basal” refers to mice that are fed the standard rodent chow diet just prior to switching to diets that are US17 based. […] The method used is as described in Example 6 except that rats are used in place of mice.

[6] = tested on: mouse liver; set-up: species or system mice; details: in vivo
From the text: as §1, with “n-3)” for “n-3),”, “non-radioactive, dose response, metabolic end-point study.” for “time course study using ^14C-labeled fatty acids.”
Mice are fed a US 17 diet containing α-linolenic acid ethyl ester (ALA-EE), stearidonic acid ethyl ester (SDA-EE), eicosapentaenoic acid ethyl ester (EPA-EE), or docosahexaenoic acid ethyl ester (DHA-EE) in an amount equivalent to a human western diet containing 1, 3 or 10 g/day of the fatty acid (g/day human equivalent dose). In order to maintain a 17% fat (37% energy) content in the US17 diet, oleic acid (18:1 n-9), as an oleic acid cassette, is removed from the US17 diet in an amount equal to the amount of fatty acid ester that is added. Oleic acid is selected as the replacement fatty acid because literature reports indicate that oleic acid is neutral with respect to inflammation and cancer.
After one month on the respective US17-based diets, the mice are sacrificed and the fatty acid composition of each of their livers is analyzed by gas chromatography. The sum of the long chain n-3 PUFAs (i.e., EPA+DPA n-3+DHA) increases dose dependently in liver tissue in the following rank order: DHA-EE>EPA-EE>SDA-EE>ALA-EE. […] Each of the dietary n-3 PUFAs decreases the level of arachidonic acid in liver tissue dose dependently. This is significant because arachidonic acid metabolites (e.g., prostaglandins, leukotrienes, and HETEs (hydroxyeicosatetraenoic acid)) are correlated with cardiovascular disease, inflammation, and tumorigenesis. The group “basal” refers to mice that are fed the standard rodent chow diet just prior to switching to diets that are US17 based.

[7] = Min/+ mice, seven weeks, ethyl ester 3% wt. or sulindac 320 ppm
[8] = large and small intestine, Min/+ mice, seven weeks, ethyl ester 3% wt. or sulindac 320 ppm, mean ± SEM
[9] = Min/+ mice, seven weeks, ethyl ester 3% wt. or sulindac 320 ppm, mean ± SEM
[10] = tumor number × tumor size, Min/+ mice, seven weeks, ethyl ester 3% wt. or sulindac 320 ppm, mean ± SEM

metabolism to long chain n-3 PUFAs, comparison [1]: faster than that of ALA
metabolized to DHA [1]: 6%
metabolized to EPA [1]: 55%
order of metabolism of the PUFAs to long chain n-3 PUFAs (14C-EPA, 14C-DPA n-3, 14C-DHA) [4]: DHA=EPA>SDA>ALA
metabolism to long chain n-3 polyunsaturated fatty acids, comparison [5]: better than ALA
Compound: CC/C=C\C/C=C\C/C=C\C/C=C\CCCCC(=O)O [Compound A-2, all cis 6,9,12,15-octadecatetraenoic acid]
Total small intestine tumors/group [2, 7]: 18
Total Avg. tumors/mouse [2, 8]: 18.7 ± 1.9^c
mice with large intestine tumors / mice in group (in parentheses) [2]: 2/10
decreasing the level of arachidonic acid in the small intestine, comparison [3]: more effective than ALA, EPA and DHA
decrease in the level of arachidonic acid, comparison [5]: greater decrease in the level of arachidonic acid than does either ALA or EPA

sum of the long chain n-3 PUFAs (EPA+DPA n-3+DHA) in liver tissue, rank order of dose dependent increase [6]: DHA-EE>EPA-EE>SDA-EE>ALA-EE
Compound: CC/C=C\C/C=C\C/C=C\C/C=C\CCCCC(=O)OCC [SDA-EE, stearidonic acid ethyl ester]

Compound: CCCCC/C=C\C/C=C\C/C=C\CCCCC(=O)O [GLA, γ-linolenic acid, reference compound]
Total small intestine tumors/group [2, 7]: 42
effect on polyp number ([2]; Min/+ mice): appears to increase polyp number
mice with large intestine tumors / mice in group (in parentheses) [2]: 6/9

Compound: CC1=C(CC(=O)O)c2cc(F)ccc2/C1=C\c1ccc([S+](C)[O-])cc1 (centres unmarked) [Sulindac, sulindac, reference compound]
Avg. large intestine tumors/mouse [2, 9]: 0.2 ± 0.2^ad
mice with large intestine tumors / mice in group (in parentheses) [2]: 2/9

sum of the long chain n-3 PUFAs (EPA+DPA n-3+DHA) in liver tissue, rank order of dose dependent increase [6]: DHA-EE>EPA-EE>SDA-EE>ALA-EE
Compound: CC/C=C\C/C=C\C/C=C\CCCCCCCC(=O)OCC [ALA-EE, α-linolenic acid ethyl ester]

sum of the long chain n-3 PUFAs (EPA+DPA n-3+DHA) in liver tissue, rank order of dose dependent increase [6]: DHA-EE>EPA-EE>SDA-EE>ALA-EE
Compound: CC/C=C\C/C=C\C/C=C\C/C=C\C/C=C\C/C=C\CCC(=O)OCC [DHA-EE, docosahexaenoic acid ethyl ester]

Compound: conjugated linoleic acid [CLA, reference compound]
Total small intestine tumors/group [2, 7]: 40
effect on polyp number ([2]; Min/+ mice): appears to increase polyp number
mice with large intestine tumors / mice in group (in parentheses) [2]: 5/9

metabolized to DHA [1]: 3%
metabolized to EPA [1]: 24%
Compound: CC/C=C\C/C=C\C/C=C\CCCCCCCC(=O)O [Compound A-1, all cis 9,12,15-octadecatrienoic acid]
effectiveness in inhibiting polyp formation and development in the large intestine ([2]; Min/+ mice): marginally efficacious
Total large intestine tumors/group ([2]; Min/+ mice, seven weeks on US17 diet with fatty acid ethyl ester 3% wt. (10 g/day human equivalent dose) or sulindac 320 ppm): 8
Total small intestine tumors/group [2, 7]: 364
Avg. large intestine tumors/mouse [2, 9]: 0.8 ± 0.3^bcd
Avg. small intestine tumor size [2, 9]: 1.23 ± 0.04^ab mm
Avg. small intestine tumors/mouse [2, 9]: 36.4 ± 6.3^ab
Avg. large intestine tumor size ([2]; Min/+ mice, seven weeks, ethyl ester 3% wt. or sulindac 320 ppm, mean ± SEM, only animals bearing colonic tumors): 2.75 ± 0.46^ab
Total Avg. overall tumor size [2, 8]: 1.21 ± 0.03^bc mm
Total Avg. tumors/mouse [2, 8]: 37.2 ± 6.6^ab
mice with large intestine tumors / mice in group (in parentheses) [2]: 5/10
Total Avg. overall tumor load ([2]; tumor number × tumor size, large and small intestine, Min/+ mice, seven weeks, ethyl ester 3% wt. or sulindac 320 ppm, mean ± SEM): 45.97 ± 8.88^ab mm
Avg. large intestine tumor load [2, 10]: 2.15 ± 0.82^bcd mm
Avg. small intestine tumor load [2, 10]: 45.67 ± 8.66^ab mm

sum of the long chain n-3 PUFAs (EPA+DPA n-3+DHA) in liver tissue, rank order of dose dependent increase [6]: DHA-EE>EPA-EE>SDA-EE>ALA-EE
Compound: CC/C=C\C/C=C\C/C=C\C/C=C\C/C=C\CCCC(=O)OCC [EPA-EE, eicosapentaenoic acid ethyl ester]

Compound: CC/C=C\C/C=C\C/C=C\C/C=C\C/C=C\CCCC(=O)O [Compound A-4, all cis (5,8,11,14,17-eicosapentaenoic acid]
effectiveness in inhibiting polyp formation and development in the large intestine ([2]; Min/+ mice): marginally efficacious
Total small intestine tumors/group [2, 7]: 17
Total Avg. tumors/mouse [2, 8]: 18.5 ± 2.2^c
mice with large intestine tumors / mice in group (in parentheses) [2]: 6/10
Avg. small intestine tumor load [2, 10]: 18.34 ± 2.04^cd mm

order of metabolism of the PUFAs to long chain n-3 PUFAs (14C-EPA, 14C-DPA n-3, 14C-DHA) [4]: DHA=EPA>SDA>ALA
Compound: CC/C=C\C/C=C\C/C=C\C/C=C\C/C=C\C/C=C\CCC(=O)O [Compound A-6, all cis 4,7,10,13,16,19-docosahexanoic acid]
mice with large intestine tumors / mice in group (in parentheses) [2]: 9/10
